Results published in patent US6846931B2, “Organic acid salt of amlodipine” (CJ Corp, priority 2002, dated 2005).

Legend:
[1] = Chemical stability in aqueous state, 25° C., 4 weeks, complete darkness (HPLC); assay type: physicochemical; settings: distilled water
Method: The resulting aqueous solutions were stored at 25° C. for 4 weeks in complete darkness, after which a measurement was made of the contents of the salts with resort to HPLC under the same conditions as in the solid state.

[2] = Test for hygroscopicity (water content at different humidity levels); assay type: physicochemical; settings: for water content: 25° C.; for change of water content: one week under various humidity conditions
[3] = Test for light stability, aqueous solution exposed to daylight (HPLC content); assay type: physicochemical; settings: for color change: 4 weeks at 25° C., daylight; for content (HPLC): stored for 4 weeks at 25° C. daylight
Method: The resulting aqueous solutions were stored at 25° C. for 4 weeks while being exposed to daylight. A measurement was made of the contents of the salts with resort to HPLC under the same conditions as in the chemical stability test.

[4] = Chemical stability in solid state, accelerated test at 60° C. (HPLC content); assay type: physicochemical; settings: for changes in the content: accelerated test at 60° C.; for content (HPLC): solid state, 60° C.
Excerpt: 1. HPLC Analysis Conditions:
Detector: UV Absorbance (at 237 nm)
Column: Octadesyl silica gel C18 (4.6 mm×150mm, 5 μm)
Mobile Phase: Potassium dihydrogenphosphate monobasic (0.03M): methanol=4:6 (v/v)

[5] = physchem; settings: 37 °C, pH 5, aqueous buffer

Compound	decomposition products and content change [1]	water content ([2]; 25% RH, 1 week) [%]	water content ([2]; 60% RH, 1 week) [%]	water content ([2]; 75% RH, 1 week) [%]	water content ([2]; 90% RH, 1 week) [%]	water content ([2]; Initial) [%]	change of water content [2]	color change [3]	content (HPLC) [3] [%]	changes in the content [4]	content (HPLC) ([4]; 1 week) [%]	content (HPLC) ([4]; initial) [%]	solubility [5] [µg/mL]	content (HPLC) ([4]; 2 weeks) [%]
CCOC(=O)C1=C(COCCN)NC(C)=C(C(=O)OC)[C@@H]1c1ccccc1Cl [(S)-(−)-PyroGlu, Amlodipine (S)-(−)-Pyroglutamate]	neither decomposition products nor content change is found	0.26	0.3	0.31	0.32	0.3	kept its initial water content without great fluctuation	no color change	98.5	virtually no changes in the content	99.6	99.6		
CCOC(=O)C1=C(COCCN)NC(C)=C(C(=O)OC)C1c1ccccc1Cl (stereo not drawn) [Besylate, Amlodipine Besylate]	neither decomposition products nor content change is found	0.10	0.09	0.15	0.17	0.14	kept its initial water content without great fluctuation	turned yellow from white	82.5	virtually no changes in the content	99.6	99.6	3150	99.4
CCOC(=O)C1=C(COCCN)NC(C)=C(C(=O)OC)C1c1ccccc1Cl.Cc1ccc(S(=O)(=O)O)cc1 (stereo not drawn) [Tosylate, Amlodipine para-Toluenesulfonate]									72.0					
